Molecular target: CDK4 (Homo sapiens, UniProt P11802+Q16531)
Assay: CDK4 percentage degradation in Calu-1 cells (Table 6)
Type: cell-based
Set-up: Cells that express cyclin D1-3 and CDK4/6 proteins were treated with heterobifunctional compounds; endogenous in cells; host or cells: Calu-1
Conditions: 16 hours; for inhibition at 0.04 µM: 40 nM; for inhibition at 0.2 µM: 200 nM
Method: Calu-(cells were treated with heterobifunctional compounds at 40 nM or 200 nM for 16 hours A: protein percentage degradation […]; B: protein percentage degradation <80%, and ≥50%; C: protein percentage degradation <50%, and ≥30%; D; protein percentage degradation […]; -, data not available.
Calu-1, T47D, MCF7, HCC1428 and other cells were cultured at 37° C. with 5% CO2 in RPMI 1640 or DMEM medium supplemented with 10% fetal bovine serum. Cells were authenticated using the short tandem repeat (STR) assays. Mycoplasma test results were negative. For palbo-resistant cell model, T47D cells were cultured long-term to resistance in the presence of 1 μM Palbociclib. Cells were deemed resistant when growing in the presence of Palbo at the same rate as parental cells.
Cultured cells were washed with cold PBS once and lysed in cold RIPA buffer supplemented with protease inhibitors and phosphatase inhibitors (Beyotime Biotechnology). The solutions were then incubated at 4 ? for 30 min with gentle agitation to fully lysed cells. Cell lysates were centrifuged at 13,000 rpm for 10 min at 4 ? and pellets were discarded. Total protein concentrations in the lysates were determined following BCA assays (Beyotime Biotechnology). Cell lysates were mixed with Laemmli loading buffer and heated at 99° C. for 5 min. Proteins were resolved on SDS-PAGE and visualized using Western ECL Substrate kits on a ChemiDoc MP Imaging system (Bio-Rad). Protein bands were quantitated using the Image Lab software provided by Bio-Rad.

Sequence of CDK4 (P11802 2-303 limits assumed): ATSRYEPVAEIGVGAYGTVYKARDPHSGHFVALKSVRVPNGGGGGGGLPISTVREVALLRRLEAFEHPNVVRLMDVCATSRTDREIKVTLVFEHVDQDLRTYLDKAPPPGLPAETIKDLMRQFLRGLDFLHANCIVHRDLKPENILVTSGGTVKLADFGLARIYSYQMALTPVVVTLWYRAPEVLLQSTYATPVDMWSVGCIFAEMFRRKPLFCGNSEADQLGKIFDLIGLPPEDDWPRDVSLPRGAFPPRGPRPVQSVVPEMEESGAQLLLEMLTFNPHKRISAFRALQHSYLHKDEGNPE
Sequence of CDK4 (P24385 whole entry partner): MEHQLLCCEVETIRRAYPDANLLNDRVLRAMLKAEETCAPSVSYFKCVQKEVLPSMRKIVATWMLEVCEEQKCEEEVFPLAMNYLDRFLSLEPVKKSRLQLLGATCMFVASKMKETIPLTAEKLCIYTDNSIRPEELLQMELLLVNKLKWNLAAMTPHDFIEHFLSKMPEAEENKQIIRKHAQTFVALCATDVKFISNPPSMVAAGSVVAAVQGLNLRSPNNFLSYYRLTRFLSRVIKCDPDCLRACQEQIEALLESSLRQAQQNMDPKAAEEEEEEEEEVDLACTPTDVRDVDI
Sequence of CDK4 (Q16531 2-1140 limits assumed): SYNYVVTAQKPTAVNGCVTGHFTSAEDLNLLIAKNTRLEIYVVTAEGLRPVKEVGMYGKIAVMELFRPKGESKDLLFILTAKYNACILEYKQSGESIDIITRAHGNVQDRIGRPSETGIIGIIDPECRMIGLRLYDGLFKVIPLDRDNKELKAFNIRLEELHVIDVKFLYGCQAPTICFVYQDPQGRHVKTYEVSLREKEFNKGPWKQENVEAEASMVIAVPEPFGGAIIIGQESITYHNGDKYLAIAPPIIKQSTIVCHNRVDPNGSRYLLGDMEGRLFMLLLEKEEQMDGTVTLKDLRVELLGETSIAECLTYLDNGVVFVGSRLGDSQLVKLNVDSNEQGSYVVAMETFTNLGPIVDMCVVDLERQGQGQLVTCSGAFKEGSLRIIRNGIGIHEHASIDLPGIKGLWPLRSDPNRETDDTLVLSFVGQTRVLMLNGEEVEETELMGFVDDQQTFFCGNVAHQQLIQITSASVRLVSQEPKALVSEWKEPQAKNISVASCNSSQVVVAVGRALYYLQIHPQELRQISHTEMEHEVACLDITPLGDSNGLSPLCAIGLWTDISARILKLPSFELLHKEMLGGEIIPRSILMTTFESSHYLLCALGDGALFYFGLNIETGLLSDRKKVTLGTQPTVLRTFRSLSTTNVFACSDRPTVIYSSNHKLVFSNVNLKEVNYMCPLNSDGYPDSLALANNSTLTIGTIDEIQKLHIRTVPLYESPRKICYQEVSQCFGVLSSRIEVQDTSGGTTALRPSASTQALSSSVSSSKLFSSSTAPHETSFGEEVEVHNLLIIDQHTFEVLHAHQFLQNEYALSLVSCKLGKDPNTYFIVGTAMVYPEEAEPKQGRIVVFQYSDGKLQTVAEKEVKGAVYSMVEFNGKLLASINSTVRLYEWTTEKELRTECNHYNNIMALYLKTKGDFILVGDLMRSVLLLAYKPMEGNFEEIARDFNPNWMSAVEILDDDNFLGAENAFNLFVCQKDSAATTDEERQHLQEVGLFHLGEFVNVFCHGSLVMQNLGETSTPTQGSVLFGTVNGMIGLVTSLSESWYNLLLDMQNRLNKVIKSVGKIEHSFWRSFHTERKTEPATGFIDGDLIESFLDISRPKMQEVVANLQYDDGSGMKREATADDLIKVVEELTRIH

Row | inhibition at 0.04 µM | inhibition at 0.2 µM | SMILES
1 | 50 to 80% | 50 to 80% | CNc1ccc(C(=O)Nc2nc(C3CC3)c(C)s2)c(NCCCCCNC(=O)CN2CCN(c3ccc(Nc4ncc5c(C)c(C(C)=O)c(=O)n(C6CCCC6)c5n4)nc3)CC2)n1 [CPD-56, 2-((5-(2-(4-(6-((6-Acetyl-8-cyclopentyl-5-methyl-7-oxo-7,8-dihydropyrido[2,3-d]pyrimidin-2-yl)amino)pyridin-3-yl)piperazin-1-yl)acetamido)pentyl)amino)-N-(4-cyclopropyl-5-methylthiazol-2-yl)-6-(methylamino)nicotinamide]
2 | 30 to 50% | 50 to 80% | CNc1ccc(C(=O)Nc2ccc(N(C)C)nc2)c(NCCCCCNC(=O)CN2CCN(c3ccc(Nc4ncc5c(C)c(C(C)=O)c(=O)n(C6CCCC6)c5n4)nc3)CC2)n1 [CPD-58, 2-((5-(2-(4-(6-((6-Acetyl-8-cyclopentyl-5-methyl-7-oxo-7,8-dihydropyrido[2,3-d]pyrimidin-2-yl)amino)pyridin-3-yl)piperazin-1-yl)acetamido)pentyl)amino)-N-(6-(dimethylamino)pyridin-3-yl)-6-(methylamino)nicotinamide]
3 | 50 to 80% | 50 to 80% | CC(=O)c1c(C)c2cnc(Nc3ccc(N4CCN(CC(=O)NCCCCCNc5nc(NC6CCC6)ccc5C(=O)Nc5ccc(N(C)C)nn5)CC4)cn3)nc2n(C2CCCC2)c1=O [CPD-59, 2-((5-(2-(4-(6-((6-Acetyl-8-cyclopentyl-5-methyl-7-oxo-7,8-dihydropyrido[2,3-d]pyrimidin-2-yl)amino)pyridin-3-yl)piperazin-1-yl)acetamido)pentyl)amino)-6-(cyclobutylamino)-N-(6-(dimethylamino)pyridazin-3-yl)nicotinamide]
4 | 50 to 80% | 50 to 80% | CC(=O)c1c(C)c2cnc(Nc3ccc(N4CCN(CC(=O)NC(C)CCCCNc5nc(C6CC6)ccc5C(=O)Nc5ccc(C)c(C6CC6)n5)CC4)cn3)nc2n(C2CCCC2)c1=O (centres unmarked) [CPD-60, 2-((5-(2-(4-(6-((6-Acetyl-8-cyclopentyl-5-methyl-7-oxo-7,8-dihydropyrido[2,3-d]pyrimidin-2-yl)amino)pyridin-3-yl)piperazin-1-yl)acetamido)hexyl)amino)-6-cyclopropyl-N-(6-cyclopropyl-5-methylpyridin-2-yl)nicotinamide]
5 | < 30% | < 30% | CNc1ccc(C(=O)Nc2nc(C3CC3)ccc2C)c(NCCCCCNC(=O)CN2CCN(c3ccc(Nc4ncc5c(C)c(C(C)=O)c(=O)n(C6CCCC6)c5n4)nc3)CC2)n1 [CPD-61, 2-((5-(2-(4-(6-((6-Acetyl-8-cyclopentyl-5-methyl-7-oxo-7,8-dihydropyrido[2,3-d]pyrimidin-2-yl)amino)pyridin-3-yl)piperazin-1-yl)acetamido)pentyl)amino)-N-(6-cyclopropyl-3-methylpyridin-2-yl)-6-(methylamino)nicotinamide]
6 | < 30% | < 30% | CNc1ccc(C(=O)NC2CC(N(C)C)C2)c(NCCCCCNC(=O)CN2CCN(c3ccc(Nc4ncc5c(C)c(C(C)=O)c(=O)n(C6CCCC6)c5n4)nc3)CC2)n1 (centres unmarked) [CPD-64, 2-((5-(2-(4-(6-((6-Acetyl-8-cyclopentyl-5-methyl-7-oxo-7,8-dihydropyrido[2,3-d]pyrimidin-2-yl)amino)pyridin-3-yl)piperazin-1-yl)acetamido)pentyl)amino)-N-(3-(dimethylamino)cyclobutyl)-6-(methylamino)nicotinamide]

Further lines, the compound ahead of its results:

Row | SMILES | inhibition at 0.04 µM | inhibition at 0.2 µM
7 | CNc1ccc(C(=O)Nc2ccc(N(C)C)nn2)c(N2CCC(CCNC(=O)CN3CCN(c4ccc(Nc5ncc6c(C)c(C(C)=O)c(=O)n(C7CCCC7)c6n5)nc4)CC3)CC2)n1 [CPD-42, 2-(4-(2-(2-(4-(6-((6-Acetyl-8-cyclopentyl-5-methyl-7-oxo-7,8-dihydropyrido[2,3-d]pyrimidin-2-yl)amino)pyridin-3-yl)piperazin-1-yl)acetamido)ethyl)piperidin-1-yl)-N-(6-(dimethylamino)pyridazin-3-yl)-6-(methylamino)nicotinamide] | < 30% | < 30%
8 | CNc1ccc(C(=O)Nc2ccc(N(C)C)nn2)c(N[C@H]2CC[C@H](CNC(=O)CN3CCN(c4ccc(Nc5ncc6c(C)c(C(C)=O)c(=O)n(C7CCCC7)c6n5)nc4)CC3)CC2)n1 [CPD-43, 2-((trans-4-((2-(4-(6-((6-Acetyl-8-cyclopentyl-5-methyl-7-oxo-7,8-dihydropyrido[2,3-d]pyrimidin-2-yl)amino)pyridin-3-yl)piperazin-1-yl)acetamido)methyl)cyclohexyl)amino)-N-(6-(dimethylamino)pyridazin-3-yl)-6-(methylamino)nicotinamide] | < 30% | 50 to 80%
9 | CC(=O)c1c(C)c2cnc(Nc3ccc(N4CCN(CC(=O)NCCCCCNc5nc(C6CC6)ccc5C(=O)Nc5ccc(C)c(C6CC6)n5)CC4)cn3)nc2n(C2CCCC2)c1=O [CPD-44, 2-((5-(2-(4-(6-((6-Acetyl-8-cyclopentyl-5-methyl-7-oxo-7,8-dihydropyrido[2,3-d]pyrimidin-2-yl)amino)pyridin-3-yl)piperazin-1-yl)acetamido)pentyl)amino)-6-cyclopropyl-N-(6-cyclopropyl-5-methylpyridin-2-yl)nicotinamide] | < 30% | 30 to 50%
10 | CC(=O)c1c(C)c2cnc(Nc3ccc(N4CCN(CC(=O)NCCC5CC(Nc6nc(C7CC7)ccc6C(=O)Nc6ccc(C)c(C7CC7)n6)C5)CC4)cn3)nc2n(C2CCCC2)c1=O (centres unmarked) [CPD-45, 2-((3-(2-(2-(4-(6-((6-Acetyl-8-cyclopentyl-5-methyl-7-oxo-7,8-dihydropyrido[2,3-d]pyrimidin-2-yl)amino)pyridin-3-yl)piperazin-1-yl)acetamido)ethyl)cyclobutyl)amino)-6-cyclopropyl-N-(6-cyclopropyl-5-methylpyridin-2-yl)nicotinamide] | < 30% | < 30%
11 | CNc1ccc(C(=O)Nc2ccc(N(C)C)cc2)c(NCCCCCNC(=O)CN2CCN(c3ccc(Nc4ncc5c(C)c(C(C)=O)c(=O)n(C6CCCC6)c5n4)nc3)CC2)n1 [CPD-46, 2-((5-(2-(4-(6-((6-Acetyl-8-cyclopentyl-5-methyl-7-oxo-7,8-dihydropyrido[2,3-d]pyrimidin-2-yl)amino)pyridin-3-yl)piperazin-1-yl)acetamido)pentyl)amino)-N-(4-(dimethylamino)phenyl)-6-(methylamino)nicotinamide] | < 30% | < 30%
12 | CNc1ccc(C(=O)Nc2ccc(N(C)C)cn2)c(NCCCCCNC(=O)CN2CCN(c3ccc(Nc4ncc5c(C)c(C(C)=O)c(=O)n(C6CCCC6)c5n4)nc3)CC2)n1 [CPD-47, 2-((5-(2-(4-(6-((6-Acetyl-8-cyclopentyl-5-methyl-7-oxo-7,8-dihydropyrido[2,3-d]pyrimidin-2-yl)amino)pyridin-3-yl)piperazin-1-yl)acetamido)pentyl)amino)-N-(5-(dimethylamino)pyridin-2-yl)-6-(methylamino)nicotinamide] | < 30% | 50 to 80%
13 | CNc1ccc(C(=O)NC2CCC(N(C)C)CC2)c(NCCCCCNC(=O)CN2CCN(c3ccc(Nc4ncc5c(C)c(C(C)=O)c(=O)n(C6CCCC6)c5n4)nc3)CC2)n1 (centres unmarked) [CPD-48, 2-((5-(2-(4-(6-((6-Acetyl-8-cyclopentyl-5-methyl-7-oxo-7,8-dihydropyrido[2,3-d]pyrimidin-2-yl)amino)pyridin-3-yl)piperazin-1-yl)acetamido)pentyl)amino)-N-(4-(dimethylamino)cyclohexyl)-6-(methylamino)nicotinamide] | < 30% | < 30%
14 | CNc1ccc(C(=O)Nc2ccn(C)n2)c(NCCCCCNC(=O)CN2CCN(c3ccc(Nc4ncc5c(C)c(C(C)=O)c(=O)n(C6CCCC6)c5n4)nc3)CC2)n1 [CPD-49, 2-((5-(2-(4-(6-((6-Acetyl-8-cyclopentyl-5-methyl-7-oxo-7,8-dihydropyrido[2,3-d]pyrimidin-2-yl)amino)pyridin-3-yl)piperazin-1-yl)acetamido)pentyl)amino)-N-(1-methyl-1H-pyrazol-3-yl)-6-(methylamino)nicotinamide] | 50 to 80% | 50 to 80%
15 | CNc1ccc(C(=O)Nc2cc(C)cc(C3CC3)n2)c(NCCCCCNC(=O)CN2CCN(c3ccc(Nc4ncc5c(C)c(C(C)=O)c(=O)n(C6CCCC6)c5n4)nc3)CC2)n1 [CPD-53, 2-((5-(2-(4-(6-((6-Acetyl-8-cyclopentyl-5-methyl-7-oxo-7,8-dihydropyrido[2,3-d]pyrimidin-2-yl)amino)pyridin-3-yl)piperazin-1-yl)acetamido)pentyl)amino)-N-(6-cyclopropyl-4-methylpyridin-2-yl)-6-(methylamino)nicotinamide] | 50 to 80% | 50 to 80%
16 | CNc1ccc(C(=O)NC2CCC(N(C)C)C2)c(NCCCCCNC(=O)CN2CCN(c3ccc(Nc4ncc5c(C)c(C(C)=O)c(=O)n(C6CCCC6)c5n4)nc3)CC2)n1 (centres unmarked) [CPD-55, 2-((5-(2-(4-(6-((6-Acetyl-8-cyclopentyl-5-methyl-7-oxo-7,8-dihydropyrido[2,3-d]pyrimidin-2-yl)amino)pyridin-3-yl)piperazin-1-yl)acetamido)pentyl)amino)-N-(3-(dimethylamino)cyclopentyl)-6-(methylamino)nicotinamide] | < 30% | < 30%
